Laboratory results published in patent US8815918B2, “Imidazo [2, 1-B] [1, 3, 4] thiadiazole derivatives” (Centro Nacional de Investigaciones Oncologicas (CNIO), priority 2009, dated 2014).
Like-named read-outs stand apart in the source and are kept apart here.

Molecular target: PI3K (p110α/p85α) (Homo sapiens (Human), UniProt P42336)
Experiment: PI3K Activity Assay (ADP Hunter Plus)
Assay type: biochemical
Details: for inhibition at 10 µM: 10 μM compound concentration, read-out: Inhibition (%) of PI3Kα activity, Inh (%) at 10 μM
Experimental: The kinase activity was measured by using the commercial ADP Hunter™ Plus assay available from DiscoveRx (#33-016), which is a homogeneous assay to measure the accumulation of ADP, a universal product of kinase activity. The enzyme, PI3K (p110α/p85α was purchased from Carna Biosciences (#07CBS-0402A). The assay was done following the manufacturer recommendations with slight modifications: Mainly the kinase buffer was replace by 50 mM HEPES, pH 7.5, 3 mM MgCl2, 100 mM NaCl, 1 mM EGTA, 0.04% CHAPS, 2 mM TCEP and 0.01 mg/ml BGG. The PI3K was assayed in a titration experiment to determine the optimal protein concentration for the inhibition assay. To calculate the IC50 of the ETP-compounds, serial 1:5 dilutions of the compounds were added to the enzyme at a fixed concentration (2.5 μg/mL. The enzyme was preincubated with the inhibitor and 30 μM PIP2 substrate (P9763, Sigma) for 5 min and then ATP was added to a final 50 μM concentration. Reaction was carried out for 1 hour at 25° C. Reagent A and B were sequentially added to the wells and plates were incubated for 30 min at 37° C. Fluorescence counts were read in a Victor instrument (Perkin Elmer) with the recommended settings (544 and 580 nm as excitation and emission wavelengths, respectively). Values were normalized against the control activity included for each enzyme (i.e., 100% PI3 kinase activity, without compound). These values were plot against the inhibitor concentration and were fit to a sigmoid dose-response curve by using the Graphad software.

[1] = read-out: Biological activity in PI3Kα, semi-quantitative

Sequence of PI3K (p110α/p85α) (P42336 whole entry): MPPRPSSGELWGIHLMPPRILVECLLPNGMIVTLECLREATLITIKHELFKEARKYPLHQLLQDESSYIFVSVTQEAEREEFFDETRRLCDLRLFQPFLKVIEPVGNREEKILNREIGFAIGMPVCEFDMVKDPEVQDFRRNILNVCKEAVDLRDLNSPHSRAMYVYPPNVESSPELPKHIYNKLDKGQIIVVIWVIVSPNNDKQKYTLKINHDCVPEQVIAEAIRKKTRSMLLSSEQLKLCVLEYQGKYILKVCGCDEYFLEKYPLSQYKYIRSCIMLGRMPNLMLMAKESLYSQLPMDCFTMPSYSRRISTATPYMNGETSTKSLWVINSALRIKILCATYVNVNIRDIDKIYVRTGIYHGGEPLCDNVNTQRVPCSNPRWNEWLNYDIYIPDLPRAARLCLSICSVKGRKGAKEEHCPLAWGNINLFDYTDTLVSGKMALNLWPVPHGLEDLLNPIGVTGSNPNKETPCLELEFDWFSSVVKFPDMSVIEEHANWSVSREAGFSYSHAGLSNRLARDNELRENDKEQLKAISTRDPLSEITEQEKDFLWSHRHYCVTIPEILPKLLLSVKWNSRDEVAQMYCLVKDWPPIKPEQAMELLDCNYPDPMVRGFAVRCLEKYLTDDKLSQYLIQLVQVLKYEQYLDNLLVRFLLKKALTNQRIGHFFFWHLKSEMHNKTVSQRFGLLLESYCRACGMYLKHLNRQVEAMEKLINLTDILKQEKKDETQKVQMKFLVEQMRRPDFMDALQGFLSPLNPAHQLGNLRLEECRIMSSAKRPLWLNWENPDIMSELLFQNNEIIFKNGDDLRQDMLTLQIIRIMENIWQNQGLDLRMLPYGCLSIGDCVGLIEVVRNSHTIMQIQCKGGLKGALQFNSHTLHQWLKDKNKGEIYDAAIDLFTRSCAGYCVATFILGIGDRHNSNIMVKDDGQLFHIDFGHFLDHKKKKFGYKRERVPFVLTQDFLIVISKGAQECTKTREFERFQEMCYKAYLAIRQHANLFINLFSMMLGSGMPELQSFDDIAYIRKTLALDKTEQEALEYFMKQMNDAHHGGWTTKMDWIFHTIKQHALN
Sequence of PI3K (p110α/p85α) (P27986 whole entry partner): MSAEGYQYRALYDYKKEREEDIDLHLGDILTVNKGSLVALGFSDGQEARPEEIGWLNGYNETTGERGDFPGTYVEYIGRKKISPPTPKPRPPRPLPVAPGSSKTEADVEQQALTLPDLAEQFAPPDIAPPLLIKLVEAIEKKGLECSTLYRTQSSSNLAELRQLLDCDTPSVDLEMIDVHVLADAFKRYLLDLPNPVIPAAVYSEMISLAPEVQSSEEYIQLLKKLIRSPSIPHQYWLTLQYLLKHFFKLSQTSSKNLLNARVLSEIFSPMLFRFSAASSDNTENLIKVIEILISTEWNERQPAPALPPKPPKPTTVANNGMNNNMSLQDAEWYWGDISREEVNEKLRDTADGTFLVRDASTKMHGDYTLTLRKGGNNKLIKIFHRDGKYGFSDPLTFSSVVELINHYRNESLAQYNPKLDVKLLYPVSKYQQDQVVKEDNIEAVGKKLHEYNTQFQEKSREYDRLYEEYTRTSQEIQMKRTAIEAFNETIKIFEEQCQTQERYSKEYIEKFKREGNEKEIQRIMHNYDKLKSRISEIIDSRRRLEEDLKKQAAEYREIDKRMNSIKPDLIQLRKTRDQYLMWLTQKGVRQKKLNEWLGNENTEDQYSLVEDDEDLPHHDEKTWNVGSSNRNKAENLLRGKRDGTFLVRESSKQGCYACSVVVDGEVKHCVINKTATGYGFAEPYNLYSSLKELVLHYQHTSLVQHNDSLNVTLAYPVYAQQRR

IC50 [1] | IC50 (read-out: IC50 [μM] PI3Kα) | inhibition at 10 µM | SMILES
1 to 50 µM | – | – | COc1cc(-c2nn3c(-c4cnc(N)nc4)cnc3s2)ccc1OC1CCN(C(=O)OC(C)(C)C)CC1 [Example 14, 4-{4-[5-(2-Amino-pyrimidin-5-yl)-imidazo[2,1-b][1,3,4]thiadiazol-2-yl]-2-methoxy-phenoxy}-piperidine-1-carboxylic acid tert-butyl ester]
0.1 to 1 µM | 0.115 µM | – | COc1cc(-c2nn3c(-c4cnc(N)nc4)cnc3s2)ccc1OC1CCNCC1 [Example 15, 5-{2-[3-Methoxy-4-(piperidin-4-yloxy)-phenyl]-imidazo[2,1-b][1,3,4]thiadiazol-5-yl}-pyrimidin-2-ylamine]
< 0.1 µM | – | 97% | COc1ccc(-c2nn3c(-c4ccc(OC)c(OC)c4)cnc3s2)cc1OC [Example 16, 2,5-Bis-(3,4-dimethoxy-phenyl)-imidazo[2,1-b][1,3,4]thiadiazole]
< 0.1 µM | 0.063 µM | 95% | COc1ccc(-c2nn3c(-c4ccc(C#N)nc4)cnc3s2)cc1OC [Example 17, 5-[2-(3,4-Dimethoxy-phenyl)-imidazo[2,1-b][1,3,4]thiadiazol-5-yl]-pyridine-2-carbonitrile]
< 0.1 µM | 0.033 µM | – | COc1ccc(-c2nn3c(-c4cnc(N)c(C#N)c4)cnc3s2)cc1OC [Example 18, 2-Amino-5-[2-(3,4-dimethoxy-phenyl)-imidazo[2,1-b][1,3,4]thiadiazol-5-yl]-nicotinonitrile]
1 to 50 µM | – | – | COc1ccc(-c2nn3c(-c4cnc(N5CCN(C(=O)OC(C)(C)C)CC5)nc4)cnc3s2)cc1OC [Example 19, 4-{5-[2-(3,4-Dimethoxy-phenyl)-imidazo[2,1-b][1,3,4]thiadiazol-5-yl]-pyrimidin-2-yl}-piperazine-1-carboxylic acid tert-butyl ester]
0.1 to 1 µM | – | – | COc1ccc(-c2nn3c(-c4cnc(N5CCNCC5)nc4)cnc3s2)cc1OC [Example 20, 2-(3,4-Dimethoxy-phenyl)-5-(2-piperazin-1-yl-pyrimidin-5-yl)-imidazo[2,1-b][1,3,4]thiadiazole]
0.1 to 1 µM | – | – | COc1ccc(-c2nn3c(-c4cnc(N5CCN(C)CC5)nc4)cnc3s2)cc1OC [Example 21, 2-(3,4-Dimethoxy-phenyl)-5-[2-(4-methyl-piperazin-1-yl)-pyrimidin-5-yl]-imidazo[2,1-b][1,3,4]thiadiazole]
0.1 to 1 µM | – | – | COc1ccc(-c2nn3c(-c4cnc(N5CCNCC5)c(C(F)(F)F)c4)cnc3s2)cc1OC [Example 22, 2-(3,4-Dimethoxy-phenyl)-5-(6-piperazin-1-yl-5-trifluoromethyl-pyridin-3-yl)-imidazo[2,1-b][1,3,4]thiadiazole]
0.1 to 1 µM | 0.447 µM | – | COc1ccc(-c2nn3c(-c4cnc(N5CCN(C)CC5)c(C(F)(F)F)c4)cnc3s2)cc1OC [Example 23, 2-(3,4-Dimethoxy-phenyl)-5-[6-(4-methyl-piperazin-1-yl)-5-trifluoromethyl-pyridin-3-yl]-imidazo[2,1-b][1,3,4]thiadiazole]
0.1 to 1 µM | – | – | COc1ccc(-c2nn3c(-c4cnc(SC)nc4)cnc3s2)cc1OC [Example 24, 2-(3,4-Dimethoxy-phenyl)-5-(2-methylsulfanyl-pyrimidin-5-yl)-imidazo[2,1-b][1,3,4]thiadiazole]
0.1 to 1 µM | – | – | COc1ccc(-c2nn3c(-c4cnc([S+](C)[O-])nc4)cnc3s2)cc1OC (stereo not shown) [Example 25, 2-(3,4-Dimethoxy-phenyl)-5-(2-mthanesulfinyl-pyrimidin-5-yl) -imidazo[2,1-b][1,3,4]thiadiazole]
0.1 to 1 µM | – | – | COc1ccc(-c2nn3c(-c4cnc(NCCN(C)C)nc4)cnc3s2)cc1OC [Example 26, N′-{5-[2-(3,4-Dimethoxy-phenyl)-imidazo[2,1-b][1,3,4]thiadiazol-5-yl]-pyrimidin-2-yl}-N,N-dimethyl-ethane-1,2-diamine]
< 0.1 µM | – | 99% | COc1cncc(-c2cnc3sc(-c4ccc(OC)c(OC)c4)nn23)c1 [Example 27, 2-(3,4-dimethoxyphenyl)-5-(5-methoxypyridin-3-yl)imidazo[2,1-b][1,3,4]thiadiazole]
0.1 to 1 µM | – | – | COc1cccc(-c2nn3c(-c4cnc(N)c(C(F)(F)F)c4)cnc3s2)c1 [Example 28, 5-[2-(3-Methoxy-phenyl)-imidazo[2,1-b][1,3,4]thiadiazol-5-yl]-3-trifluoromethyl-pyridin-2-ylamine]
< 0.1 µM | – | – | N#Cc1cccc(-c2nn3c(-c4cnc(N)c(C(F)(F)F)c4)cnc3s2)c1 [Example 29, 3-[5-(6-Amino-5-trifluoromethyl-pyridin-3-yl)-imidazo[2,1-b][1,3,4]thiadiazol-2-yl]-benzonitrile]
0.1 to 1 µM | 0.454 µM | – | COc1ccc(-c2nn3c(-c4cnc(N)c(C(F)(F)F)c4)cnc3s2)cc1 [Example 30, 5-[2-(4-Methoxy-phenyl)-imidazo[2,1-b][1,3,4]thiadiazol-5-yl]-3-trifluoromethyl-pyridin-2-ylamine]
< 0.1 µM | – | – | CS(=O)(=O)Nc1cccc(-c2nn3c(-c4cnc(N)c(C(F)(F)F)c4)cnc3s2)c1 [Example 31, N-{3-[5-(6-Amino-5-trifluoromethyl-pyridin-3-yl)-imidazo[2,1-b][1,3,4]thiadiazol-2-yl]-phenyl}-methanesulfonamide]
< 0.1 µM | – | – | Nc1ncc(-c2cnc3sc(-c4cccnc4)nn23)cc1C(F)(F)F [Example 32, 5-(2-Pyridin-3-yl-imidazo[2,1-b][1,3,4]thiadiazol-5-yl)-3-trifluoromethyl-pyridin-2-ylamine]
0.1 to 1 µM | – | – | N#Cc1ccc(-c2nn3c(-c4cnc(N)c(C(F)(F)F)c4)cnc3s2)cc1 [Example 33, 4-[5-(6-Amino-5-trifluoromethyl-pyridin-3-yl)-imidazo[2,1-b][1,3,4]thiadiazol-2-yl]-benzonitrile]
< 0.1 µM | – | – | CS(=O)(=O)NCc1cccc(-c2nn3c(-c4cnc(N)c(C(F)(F)F)c4)cnc3s2)c1 [Example 34, N-{3-[5-(6-Amino-5-trifluoromethyl-pyridin-3-yl)-imidazo[2,1-b][1,3,4]thiadiazol-2-yl]-benzyl}-methanesulfonamide]
< 0.1 µM | – | – | NC(=O)c1cccc(-c2nn3c(-c4cnc(N)c(C(F)(F)F)c4)cnc3s2)c1 [Example 35, 3-[5-(6-Amino-5-trifluoromethyl-pyridin-3-yl)-imidazo[2,1-b][1,3,4]thiadiazol-2-yl]-benzamide]
< 0.1 µM | 0.095 µM | – | CCn1cc(-c2nn3c(-c4cnc(N)c(C(F)(F)F)c4)cnc3s2)cn1 [Example 36, 5-[2-(1-Ethyl-1H-pyrazol-4-yl)-imidazo[2,1-b][1,3,4]thiadiazol-5-yl]-3-trifluoromethyl-pyridin-2-ylamine]
< 0.1 µM | – | – | Cc1ccncc1-c1nn2c(-c3cnc(N)c(C(F)(F)F)c3)cnc2s1 [Example 37, 5-[2-(4-Methyl-pyridin-3-yl)-imidazo[2,1-b][1,3,4]thiadiazol-5-yl]-3-trifluoromethyl-pyridin-2-ylamine]
0.1 to 1 µM | 0.676 µM | – | Nc1ncc(-c2cnc3sc(-c4ccc5[nH]ccc5c4)nn23)cc1C(F)(F)F [Example 40, 5-[2-(1H-Indol-5-yl)-imidazo[2,1-b][1,3,4]thiadiazol-5-yl]-3-trifluoromethyl-pyridin-2-ylamine]
< 0.1 µM | 0.05 µM | – | CS(=O)(=O)c1cccc(-c2nn3c(-c4cnc(N)c(C(F)(F)F)c4)cnc3s2)c1 [Example 41, 5-[2-(3-Methanesulfonyl-phenyl)-imidazo[2,1-b][1,3,4]thiadiazol-5-yl]-3-trifluoromethyl-pyridin-2-ylamine]
0.1 to 1 µM | – | – | CN(C)c1cccc(-c2nn3c(-c4cnc(N)c(C(F)(F)F)c4)cnc3s2)c1 [Example 42, 5-[2-(3-Dimethylamino-phenyl)-imidazo[2,1-b][1,3,4]thiadiazol-5-yl]-3-trifluoromethyl-pyridin-2-ylamine]
< 0.1 µM | 0.062 µM | – | Cc1ccc(-c2nn3c(-c4cnc(N)c(C(F)(F)F)c4)cnc3s2)cn1 [Example 43, 5-[2-(6-Methyl-pyridin-3-yl)-imidazo[2,1-b][1,3,4]thiadiazol-5-yl]-3-trifluoromethyl-pyridin-2-ylamine]
0.1 to 1 µM | – | – | Nc1ncc(-c2cnc3sc(-c4ccc(S(=O)(=O)N5CCOCC5)cc4)nn23)cc1C(F)(F)F [Example 44, 5-{2-[4-(Morpholine-4-sulfonyl)-phenyl]-imidazo[2,1-b][1,3,4]thiadiazol-5-yl}-3-trifluoromethyl-pyridin-2-ylamine]

SMILES | IC50 [1] | IC50 (read-out: IC50 [μM] PI3Kα) | inhibition at 10 µM
CC(C)(C)OC(=O)N1CCC2(CC1)C(=O)Nc1ccc(-c3nn4c(-c5cnc(N)c(C(F)(F)F)c5)cnc4s3)cc12 [Example 38, 5-[2-(1′-(tert-butoxycarbonyl)-2-oxo-1,2-dihydrospiro[indole-3,4′-piperidine]-5-yl)-imidazo[2,1-b][1,3,4]thiadiazol-5-yl]-3-trifluoromethyl-pyridin-2-ylamine] | 1 to 50 µM | – | –
Nc1ncc(-c2cnc3sc(-c4ccc5c(c4)C4(CCNCC4)C(=O)N5)nn23)cc1C(F)(F)F [Example 39, 5-[2-(2-oxo-1,2-dihydrospiro[indole-3,4′-piperidine]-5-yl)-imidazo[2,1-b][1,3,4]thiadiazol-5-yl]-3-trifluoromethyl-pyridin-2-ylamine] | < 0.1 µM | – | –
